Reference: PubChem BioAssay (NCI)
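Cultured in 96-well plates, cells were exposed to test compound for 48 hours across five concentrations. GI50: concentration for 50% inhibition of growth. Definition used: TGI = concentration required for complete inhibition of growth.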

Legend:
Experiment in all cases: inhibition of tumour cell growth, NCI panel, 48 h
786-0 renal = tested on: 786-0 renal
A498 renal = tested on: A498 renal
A549 NSCLC = tested on: A549 NSCLC
ACHN renal = tested on: ACHN renal
BT-549 breast = tested on: BT-549 breast
CAKI-1 renal = tested on: CAKI-1 renal
CCRF-CEM leukemia = tested on: CCRF-CEM leukemia
COLO 205 colon = tested on: COLO 205 colon
DU-145 prostate = tested on: DU-145 prostate
EKVX NSCLC = tested on: EKVX NSCLC
HCC-2998 colon = tested on: HCC-2998 colon
HCT-116 colon = tested on: HCT-116 colon
HCT-15 colon = tested on: HCT-15 colon
HL-60(TB) leukemia = tested on: HL-60(TB) leukemia
HOP-62 NSCLC = tested on: HOP-62 NSCLC
HOP-92 NSCLC = tested on: HOP-92 NSCLC
HS 578T breast = tested on: HS 578T breast
HT29 colon = tested on: HT29 colon
IGROV1 ovarian = tested on: IGROV1 ovarian
K-562 leukemia = tested on: K-562 leukemia
KM12 colon = tested on: KM12 colon
LOX IMVI melanoma = tested on: LOX IMVI melanoma
M14 melanoma = tested on: M14 melanoma
MALME-3M melanoma = tested on: MALME-3M melanoma
MCF7 breast = tested on: MCF7 breast
MDA-MB-231 breast = tested on: MDA-MB-231 breast
MDA-MB-435 = tested on: MDA-MB-435
MOLT-4 leukemia = tested on: MOLT-4 leukemia
NCI-H226 lung = tested on: NCI-H226 lung
NCI-H23 lung = tested on: NCI-H23 lung
NCI-H460 lung = tested on: NCI-H460 lung
NCI-H522 lung = tested on: NCI-H522 lung
NCI/ADR-RES ovarian = tested on: NCI/ADR-RES ovarian
OVCAR-3 ovarian = tested on: OVCAR-3 ovarian
OVCAR-4 ovarian = tested on: OVCAR-4 ovarian
OVCAR-5 ovarian = tested on: OVCAR-5 ovarian
OVCAR-8 ovarian = tested on: OVCAR-8 ovarian
PC-3 prostate = tested on: PC-3 prostate
RPMI-8226 leukemia = tested on: RPMI-8226 leukemia
RXF 393 renal = tested on: RXF 393 renal
SF-268 CNS = tested on: SF-268 CNS
SF-295 CNS = tested on: SF-295 CNS
SF-539 CNS = tested on: SF-539 CNS
SK-MEL-2 melanoma = tested on: SK-MEL-2 melanoma
SK-MEL-28 melanoma = tested on: SK-MEL-28 melanoma
SK-MEL-5 melanoma = tested on: SK-MEL-5 melanoma
SK-OV-3 ovarian = tested on: SK-OV-3 ovarian
SN12C renal = tested on: SN12C renal
SNB-19 CNS = tested on: SNB-19 CNS
SNB-75 CNS = tested on: SNB-75 CNS
SR leukemia = tested on: SR leukemia
SW-620 colon = tested on: SW-620 colon
T-47D breast = tested on: T-47D breast
TK-10 renal = tested on: TK-10 renal
U251 CNS = tested on: U251 CNS
UACC-257 melanoma = tested on: UACC-257 melanoma
UACC-62 melanoma = tested on: UACC-62 melanoma
UO-31 renal = tested on: UO-31 renal

## O=Cc1cn(Cc2ccc(Cl)cc2)c2ccccc12
786-0 renal
  GI50: 13.6 µM
  TGI: 64.5 µM
A498 renal
  GI50: 0.0342 µM
  TGI: 0.172 µM
A549 NSCLC
  GI50: 13.4 µM
  TGI: > 100 µM
ACHN renal
  GI50: 27.4 µM
  TGI: > 100 µM
BT-549 breast
  GI50: 11.4 µM
  TGI: 49.2 µM
CAKI-1 renal
  GI50: 0.101 µM
  TGI: 3.42 µM
CCRF-CEM leukemia
  GI50: 19.7 µM
  TGI: > 100 µM
COLO 205 colon
  GI50: 2.17 µM
  TGI: 20.7 µM
DU-145 prostate
  GI50: 22.3 µM
  TGI: > 100 µM
EKVX NSCLC
  GI50: 21 µM
  TGI: > 100 µM
HCC-2998 colon
  GI50: 14.3 µM
  TGI: > 100 µM
HCT-116 colon
  GI50: 4.83 µM
  TGI: 30 µM
HCT-15 colon
  GI50: 15.5 µM
  TGI: > 100 µM
HL-60(TB) leukemia
  GI50: 22.5 µM
  TGI: 72.8 µM
HOP-62 NSCLC
  GI50: 2.63 µM
  TGI: > 100 µM
HOP-92 NSCLC
  GI50: 4.43 µM
  TGI: 49 µM
HS 578T breast
  GI50: 19.2 µM
  TGI: > 100 µM
HT29 colon
  GI50: 24.4 µM
  TGI: > 100 µM
IGROV1 ovarian
  GI50: 1.22 µM
  TGI: 39.4 µM
K-562 leukemia
  GI50: 4.21 µM
  TGI: > 100 µM
KM12 colon
  GI50: 26.4 µM
  TGI: > 100 µM
LOX IMVI melanoma
  GI50: 12.1 µM
  TGI: > 95 µM
M14 melanoma
  GI50: 15.2 µM
  TGI: 72.5 µM
MALME-3M melanoma
  GI50: 14.3 µM
  TGI: 43.3 µM
MCF7 breast
  GI50: 4.12 µM
  TGI: > 67.2 µM
MDA-MB-231 breast
  GI50: 9.7 µM
  TGI: > 56.3 µM
MDA-MB-435
  GI50: 23 µM
  TGI: > 100 µM
MOLT-4 leukemia
  GI50: 17.9 µM
  TGI: > 82.7 µM
NCI-H226 lung
  GI50: 0.041 µM
  TGI: 0.251 µM
NCI-H23 lung
  GI50: 8.37 µM
  TGI: > 100 µM
NCI-H460 lung
  GI50: 0.115 µM
  TGI: 11.2 µM
NCI-H522 lung
  GI50: 73.2 µM
  TGI: > 100 µM
NCI/ADR-RES ovarian
  GI50: 13.9 µM
  TGI: > 100 µM
OVCAR-3 ovarian
  GI50: 6.64 µM
  TGI: 61.7 µM
OVCAR-4 ovarian
  GI50: 4.39 µM
  TGI: > 100 µM
OVCAR-5 ovarian
  GI50: 0.082 µM
  TGI: 0.659 µM
OVCAR-8 ovarian
  GI50: 23.5 µM
  TGI: > 100 µM
PC-3 prostate
  GI50: 12.8 µM
  TGI: 73.2 µM
RPMI-8226 leukemia
  GI50: 7.14 µM
  TGI: > 100 µM
RXF 393 renal
  GI50: 4.59 µM
  TGI: 51.8 µM
SF-268 CNS
  GI50: 21.4 µM
  TGI: > 100 µM
SF-295 CNS
  GI50: 0.992 µM
  TGI: 34.9 µM
SF-539 CNS
  GI50: 16.6 µM
  TGI: 50.3 µM
SK-MEL-2 melanoma
  GI50: 8.49 µM
  TGI: 66.1 µM
SK-MEL-28 melanoma
  GI50: 33.6 µM
  TGI: > 100 µM
SK-MEL-5 melanoma
  GI50: 8.18 µM
  TGI: 22.3 µM
SK-OV-3 ovarian
  GI50: 1.84 µM
  TGI: 44.8 µM
SN12C renal
  GI50: 14.9 µM
  TGI: > 100 µM
SNB-19 CNS
  GI50: 19.4 µM
  TGI: > 100 µM
SNB-75 CNS
  GI50: 8.26 µM
  TGI: > 100 µM
SR leukemia
  GI50: 16.5 µM
  TGI: > 79.4 µM
SW-620 colon
  GI50: 13.2 µM
  TGI: > 100 µM
T-47D breast
  GI50: 1.84 µM
  TGI: 69.7 µM
TK-10 renal
  GI50: 0.162 µM
  TGI: 1.52 µM
U251 CNS
  GI50: 13.3 µM
  TGI: > 100 µM
UACC-257 melanoma
  GI50: 2.05 µM
  TGI: 7.44 µM
UACC-62 melanoma
  GI50: 1.32 µM
  TGI: 9.09 µM
UO-31 renal
  GI50: 3.35 µM
  TGI: 45.4 µM
